Measured values: ChEMBL document CHEMBL4411338, “Convenient framework of poly functionalized (E)-2-benzylideno-(Z)-carbazolylideno cyanoacetamides via rearrangements as an efficient antibiofilm inhibitors with SAR study” (Bioorg Med Chem, 2019)
Active and inactive are the calls of the source. No cut-off for these calls is given here.

Tests used:
Priestia megaterium = assay: Antibiofilm activity against ofloxacin-resistant Bacillus megaterium assessed as disruption of biofilm at 200 ug/ml after 24 hrs by crystal violet staining based ELISA relative to control; assay type: functional
Bacillus subtilis = assay: Antibiofilm activity against tetracycline-resistant Bacillus subtilis assessed as disruption of biofilm at 200 ug/ml after 24 hrs by crystal violet staining based ELISA relative to control; assay type: functional
Escherichia coli [1] = assay: Antibiofilm activity against carbapenem-resistant Escherichia coli assessed as disruption of biofilm at 200 ug/ml after 24 hrs by crystal violet staining based ELISA relative to control; assay type: functional
Pseudomonas fluorescens = assay: Antibiofilm activity against tetracycline-resistant Pseudomonas fluorescens assessed as disruption of biofilm at 200 ug/ml after 24 hrs by crystal violet staining based ELISA relative to control; assay type: functional
Pseudomonas aeruginosa [2] = assay: Antibiofilm activity against carbenicillin-resistant Pseudomonas aeruginosa assessed as disruption of biofilm at 200 ug/ml after 24 hrs by crystal violet staining based ELISA relative to control; assay type: functional
Klebsiella pneumoniae [3] = assay: Antibiofilm activity against carbapenem-resistant Klebsiella pneumoniae assessed as disruption of biofilm at 200 ug/ml after 24 hrs by crystal violet staining based ELISA relative to control; assay type: functional
Klebsiella pneumoniae [4] = assay: Antibiofilm activity against tetracycline-resistant Klebsiella pneumoniae assessed as disruption of biofilm at 200 ug/ml after 24 hrs by crystal violet staining based ELISA relative to control; assay type: functional
Escherichia coli [5] = assay: Antibiofilm activity against carbenicillin-resistant Escherichia coli assessed as disruption of biofilm at 100 ug/ml after 24 hrs by crystal violet staining based ELISA relative to control; assay type: functional
Klebsiella pneumoniae [6] = assay: Antibiofilm activity against carbenicillin-resistant Klebsiella pneumoniae assessed as disruption of biofilm at 200 ug/ml after 24 hrs by crystal violet staining based ELISA relative to control; assay type: functional
Pseudomonas aeruginosa [7] = assay: Antibiofilm activity against carbenicillin-resistant Pseudomonas aeruginosa assessed as disruption of biofilm at 100 ug/ml after 24 hrs by crystal violet staining based ELISA relative to control; assay type: functional
Escherichia coli [8] = assay: Antibiofilm activity against carbenicillin-resistant Escherichia coli assessed as disruption of biofilm at 10 ug/ml by crystal violet/acridine orange staining based fluorescence microscopic analysis; assay type: functional, organism-based
Pseudomonas aeruginosa [9] = assay: Antibiofilm activity against carbenicillin-resistant Pseudomonas aeruginosa assessed as disruption of biofilm at 10 ug/ml by crystal violet/acridine orange staining based fluorescence microscopic analysis; assay type: functional, organism-based
Klebsiella pneumoniae [10] = assay: Antibiofilm activity against carbenicillin-resistant Klebsiella pneumoniae assessed as disruption of biofilm at 10 ug/ml by crystal violet/acridine orange staining based fluorescence microscopic analysis; assay type: functional, organism-based
Klebsiella pneumoniae [11] = assay: Antibiofilm activity against tetracycline-resistant Klebsiella pneumoniae assessed as disruption of biofilm at 10 ug/ml by crystal violet/acridine orange staining based fluorescence microscopic analysis; assay type: functional, organism-based
Escherichia coli [12] = assay: Reduction in reactive oxygen species level in carbapenem-resistant Escherichia coli biofilm at 10 ug/ml measured after 2 to 6 hrs by DCFH-DA probe based UV-spectrofluorimetric method; assay type: functional, organism-based
Escherichia coli [13] = assay: Antibiofilm activity against carbapenem-resistant Escherichia coli biofilm assessed as reactive oxygen species generation at 10 ug/ml after 1 hr by DCFH-DA probe based UV-spectrofluorimetric method relative to control; assay type: functional
HEK293 [14] = assay: Cytotoxicity against HEK293 cells assessed as reduction in cell viability at >75 ug/ml after 24 hrs by MTT assay; assay type: cell-based; details: human, hek293, 24 h
HEK293 [15] = assay: Cytotoxicity against HEK293 cells assessed as reduction in cell viability up to 75 ug/ml after 24 hrs by MTT assay; assay type: cell-based; details: human, hek293, 24 h
Klebsiella pneumoniae [16] = assay: Antibiofilm activity against tetracycline-resistant Klebsiella pneumoniae assessed as disruption of biofilm at 100 ug/ml after 24 hrs by crystal violet staining based ELISA relative to control; assay type: functional

SMILES | inhibition at 200 µg/mL (Priestia megaterium) | inhibition at 200 µg/mL (Bacillus subtilis) | inhibition at 200 µg/mL (Escherichia coli [1]) | inhibition at 200 µg/mL (Pseudomonas fluorescens) | inhibition at 200 µg/mL (Pseudomonas aeruginosa [2]) | inhibition at 200 µg/mL (Klebsiella pneumoniae [3]) | inhibition at 200 µg/mL (Klebsiella pneumoniae [4]) | inhibition at 100 µg/mL (Escherichia coli [5]) | inhibition at 200 µg/mL (Klebsiella pneumoniae [6]) | inhibition at 100 µg/mL (Pseudomonas aeruginosa [7]) | Activity (Escherichia coli [8]) | Activity (Pseudomonas aeruginosa [9]) | Activity (Klebsiella pneumoniae [10]) | Activity (Klebsiella pneumoniae [11]) | Activity (Escherichia coli [12]) | fold change (FC) (Escherichia coli [13]) | Activity (HEK293 [14]) | Activity (HEK293 [15]) | inhibition at 100 µg/mL (Klebsiella pneumoniae [16])
O=C(O)c1cn(C2CC2)c2cc(N3CCNCC3)c(F)cc2c1=O [CIPROFLOXACIN] | 56.3% | 23% | 45% | 38% | 49.7% | 25.5% | 43% |  |  |  |  |  |  |  |  |  |  |  | 
Cc1ccc2c3c([nH]c2c1)C(=C(/C#N)C(N)=O)/C(=C/c1cccs1)CC3 | 15.7% | 21% | 9.8% | 28% | 18.9% | 18% | 3.5% |  |  |  |  |  |  |  |  |  |  |  | 
Cc1ccc2c3c([nH]c2c1)C(=C(/C#N)C(N)=O)/C(=C/c1ccccc1)CC3 | 13.1% | 45% | 16% | 26.4% | 17% | 14% | 15.6% |  |  |  |  |  |  |  |  |  |  |  | 
Cc1cccc2c3c([nH]c12)C(=C(/C#N)C(N)=O)/C(=C/c1ccccc1)CC3 | 31.4% | 23% | 14.6% | 0% | 4.3% | 21% | 1.9% |  |  |  |  |  |  |  |  |  |  |  | 
Cc1ccc2[nH]c3c(c2c1)CCC(=C\c1ccc(F)cc1)/C3=C(\C#N)C(N)=O | 32.4% | 56% | 13.4% | 11% | 19.3% | 17% | 0% |  |  |  |  |  |  |  |  |  |  |  | 
CCOc1ccc(/C=C2\CCc3c([nH]c4ccc(C)cc34)\C2=C(\C#N)C(N)=O)cc1OCC | 11.2% | 8% | 27.4% | 18% | 29.3% | 16% | 23.3% |  |  |  |  |  |  |  |  |  |  |  | 
Cc1ccc2[nH]c3c(c2c1)CCC(=C\c1ccccn1)/C3=C(\C#N)C(N)=O | 18.2% | 26% | 21.7% | 29% | 17% | 32% | 0% |  |  |  |  |  |  |  |  |  |  |  | 
COc1ccc(/C=C2\CCc3c([nH]c4ccc(C)cc34)\C2=C(\C#N)C(N)=O)cc1OC | 17.1% | 21% | 80% | 31% | 67% | 78% | 78% | 78% | 82% |  |  |  |  |  |  |  |  |  | 
COc1ccc(/C=C2\CCc3c([nH]c4c(C)cccc34)\C2=C(\C#N)C(N)=O)cc1OC | 6.1% | 31% | 84.6% | 0% | 12.5% | 16% | 23% |  |  |  |  |  |  |  |  |  |  |  | 
Cc1ccc2[nH]c3c(c2c1)CCC(=C\c1ccccc1)/C3=C(\C#N)C(N)=O | 21.4% | 23% | 85% | 31% | 81% | 71% | 71% | 89% |  | 79% | Active | Active | Active | Active | Active | 2 | Toxic | Non-Toxic | 
Cc1ccc2[nH]c3c(c2c1)CCC(=C\c1cccs1)/C3=C(\C#N)C(N)=O | 4.5% | 28% | 70% | 73% | 29.3% | 74% | 81% | 78% |  |  |  |  |  |  |  |  |  |  | 78%
COc1ccc(/C=C2\CCc3c([nH]c4cc(C)ccc34)\C2=C(\C#N)C(N)=O)cc1OC | 10.9% | 32% | 17.2% | 5% | 15.3% | 12% | 18.3% |  |  |  |  |  |  |  |  |  |  |  | 
Cc1cccc2c3c([nH]c12)C(=C(/C#N)C(N)=O)/C(=C/c1cccs1)CC3 | 17.6% | 12% | 22.8% | 0% | 24.1% | 12% | 27.9% |  |  |  |  |  |  |  |  |  |  |  | 
Cc1ccc2[nH]c3c(c2c1)CCC(=C\c1cccc(F)c1)/C3=C(\C#N)C(N)=O | 21.1% | 10% | 24.8% | 15% | 25.3% | 29% | 0% |  |  |  |  |  |  |  |  |  |  |  | 
Cc1ccc2[nH]c3c(c2c1)CCC(=C\c1cccc(Br)c1)/C3=C(\C#N)C(N)=O | 6.3% | 10% | 33.5% | 12% | 13.2% | 20.7% | 28.3% |  |  |  |  |  |  |  |  |  |  |  | 
